Reference: PubChem BioAssay (NCI)
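Step 1: Grow cells in 96-well plates. Step 2: Expose to compound for 48 hours at 5 concentrations. Step 3: Interpolate endpoints linearly; if unreached, use highest concentration. The concentration for 50% growth inhibition is given as GI50. TGI marks complete inhibition of growth.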

What was measured:
Experiment in all cases: inhibition of tumour cell growth, NCI panel, 48 h
[1] = tested on: 786-0 renal
[2] = tested on: A498 renal
[3] = tested on: A549 NSCLC
[4] = tested on: ACHN renal
[5] = tested on: BT-549 breast
[6] = tested on: CAKI-1 renal
[7] = tested on: CCRF-CEM leukemia
[8] = tested on: COLO 205 colon
[9] = tested on: DU-145 prostate
[10] = tested on: EKVX NSCLC
[11] = tested on: HCC-2998 colon
[12] = tested on: HCT-116 colon
[13] = tested on: HCT-15 colon
[14] = tested on: HL-60(TB) leukemia
[15] = tested on: HOP-62 NSCLC
[16] = tested on: HOP-92 NSCLC
[17] = tested on: HS 578T breast
[18] = tested on: HT29 colon
[19] = tested on: K-562 leukemia
[20] = tested on: KM12 colon
[21] = tested on: LOX IMVI melanoma
[22] = tested on: M14 melanoma
[23] = tested on: MALME-3M melanoma
[24] = tested on: MCF7 breast
[25] = tested on: MDA-MB-231 breast
[26] = tested on: MDA-MB-435
[27] = tested on: MDA-MB-468 breast
[28] = tested on: MOLT-4 leukemia
[29] = tested on: NCI-H23 lung
[30] = tested on: NCI-H460 lung
[31] = tested on: NCI-H522 lung
[32] = tested on: NCI/ADR-RES ovarian
[33] = tested on: OVCAR-3 ovarian
[34] = tested on: OVCAR-4 ovarian
[35] = tested on: OVCAR-5 ovarian
[36] = tested on: OVCAR-8 ovarian
[37] = tested on: PC-3 prostate
[38] = tested on: RPMI-8226 leukemia
[39] = tested on: RXF 393 renal
[40] = tested on: SF-268 CNS
[41] = tested on: SF-295 CNS
[42] = tested on: SF-539 CNS
[43] = tested on: SK-MEL-2 melanoma
[44] = tested on: SK-MEL-28 melanoma
[45] = tested on: SK-MEL-5 melanoma
[46] = tested on: SK-OV-3 ovarian
[47] = tested on: SN12C renal
[48] = tested on: SNB-19 CNS
[49] = tested on: SNB-75 CNS
[50] = tested on: SR leukemia
[51] = tested on: SW-620 colon
[52] = tested on: T-47D breast
[53] = tested on: TK-10 renal
[54] = tested on: U251 CNS
[55] = tested on: UACC-257 melanoma
[56] = tested on: UACC-62 melanoma
[57] = tested on: UO-31 renal

Cc1nc(Nc2ncc(C(=O)Nc3c(C)cccc3Cl)s2)cc(N2CCN(CCCNC(=O)COc3ccc(C4CCC(=O)NC4=O)cc3)CC2)n1 (stereo not drawn)
GI50 [1]: 0.445 µM | TGI [1]: > 100 µM | GI50 [2]: 2.93 µM | TGI [2]: > 100 µM | GI50 [3]: 2.23 µM | TGI [3]: > 48.1 µM | GI50 [4]: 0.757 µM | TGI [4]: > 100 µM | GI50 [5]: > 100 µM | TGI [5]: > 100 µM | GI50 [6]: 0.206 µM | TGI [6]: 1.83 µM | GI50 [7]: 34 µM | TGI [7]: > 100 µM | GI50 [8]: 0.0695 µM | TGI [8]: > 100 µM | GI50 [9]: 2.3 µM | TGI [9]: > 100 µM | GI50 [10]: 1.85 µM | TGI [10]: > 100 µM | GI50 [11]: > 100 µM | TGI [11]: > 100 µM | GI50 [12]: 2.5 µM | TGI [12]: > 92.5 µM | GI50 [13]: 9.01 µM | TGI [13]: > 100 µM | GI50 [14]: > 79.5 µM | TGI [14]: > 100 µM | GI50 [15]: 0.336 µM | TGI [15]: > 100 µM | GI50 [16]: < 0.01 µM | TGI [16]: 0.0498 µM | GI50 [17]: 0.0167 µM | TGI [17]: 0.13 µM | GI50 [18]: 0.181 µM | TGI [18]: 2.54 µM | GI50 [19]: < 0.01 µM | TGI [19]: > 100 µM | GI50 [20]: > 91.9 µM | TGI [20]: > 100 µM | GI50 [21]: 0.0182 µM | TGI [21]: 0.218 µM | GI50 [22]: > 59.2 µM | TGI [22]: > 100 µM | GI50 [23]: > 100 µM | TGI [23]: > 100 µM | GI50 [24]: > 100 µM | TGI [24]: > 100 µM | GI50 [25]: 0.0256 µM | TGI [25]: 10.6 µM | GI50 [26]: > 100 µM | TGI [26]: > 100 µM | GI50 [27]: 0.172 µM | TGI [27]: 5.16 µM | GI50 [28]: 7.64 µM | TGI [28]: > 100 µM | GI50 [29]: 16.9 µM | TGI [29]: > 100 µM | GI50 [30]: > 100 µM | TGI [30]: > 100 µM | GI50 [31]: 1.3 µM | TGI [31]: > 100 µM | GI50 [32]: > 100 µM | TGI [32]: > 100 µM | GI50 [33]: 0.275 µM | TGI [33]: > 100 µM | GI50 [34]: > 100 µM | TGI [34]: > 100 µM | GI50 [35]: 0.191 µM | TGI [35]: > 100 µM | GI50 [36]: 0.934 µM | TGI [36]: > 52.2 µM | GI50 [37]: 2.43 µM | TGI [37]: > 100 µM | GI50 [38]: > 100 µM | TGI [38]: > 100 µM | GI50 [39]: 0.0147 µM | TGI [39]: 0.081 µM | GI50 [40]: 0.11 µM | TGI [40]: > 100 µM | GI50 [41]: 6.78 µM | TGI [41]: > 100 µM | GI50 [42]: 0.0507 µM | TGI [42]: 4.7 µM | GI50 [43]: > 100 µM | TGI [43]: > 100 µM | GI50 [44]: > 100 µM | TGI [44]: > 100 µM | GI50 [45]: 66.7 µM | TGI [45]: > 100 µM | GI50 [46]: 0.505 µM | TGI [46]: 6.95 µM | GI50 [47]: 0.0309 µM | TGI [47]: > 100 µM | GI50 [48]: > 100 µM | TGI [48]: > 100 µM | GI50 [49]: < 0.01 µM | GI50 [50]: 2.8 µM | TGI [50]: > 100 µM | GI50 [51]: > 100 µM | TGI [51]: > 100 µM | GI50 [52]: 0.454 µM | TGI [52]: > 100 µM | GI50 [53]: 0.517 µM | TGI [53]: 4.12 µM | GI50 [54]: > 100 µM | TGI [54]: > 100 µM | GI50 [55]: > 100 µM | TGI [55]: > 100 µM | GI50 [56]: > 100 µM | TGI [56]: > 100 µM | GI50 [57]: 1.47 µM | TGI [57]: > 100 µM
